In article PMC12526156, “Optimization of the Macrocyclic Tetrapeptide [D-Trp]CJ-15,208 to Prevent Stress-Induced Relapse of Cocaine-Seeking Behavior” (Molecules, 2025):
In brackets after ≈: the same amount, converted by molar mass. Read-outs that look alike come from different tables or passages of the source. Where a SMILES comes first, the peptide text is derived from it. [ ]: non-standard residue; d: D form. dPhe(F5) = N[C@H](Cc1c(F)c(F)c(F)c(F)c1F)C(=O)O; dPhe(3,4-F2) = N[C@H](Cc1ccc(F)c(F)c1)C(=O)O; dPhe(4-NH2) = Nc1ccc(C[C@@H](N)C(=O)O)cc1; dPhe(4-Me) = Cc1ccc(C[C@@H](N)C(=O)O)cc1; dPhe(2-F) = N[C@H](Cc1ccccc1F)C(=O)O

Columns and labels:
hKOR [1] = target: T1, hKOR (Homo sapiens, UniProt P41145); experiment: KOR cAMP assay using GloSensor-22F, agonist mode (KOR-CHO-GLO cells); type: cell-based; conditions: for Emax at 10 µM: read-out: KOR Efficacy (%)
[2] = Kinetic aqueous solubility; type: physicochemical; conditions: 1% DMSO, pH 7.4
From the text: Table A1 Stability of [D-Trp]- and [D-Phe^4]CJ-15,208 and selected analogs in human (HLMs) and mouse liver microsomes (MLMs)^1. and kinetic aqueous solubility. | column: Solubility ^2 / (µM)

[3] = Metabolic stability in human liver microsomes; type: in vitro ADME; conditions: 1 mg protein/mL; for half-life at 1 µM / microsomal CLint at 1 µM: human liver microsomes
Method: (§1) Evaluation of the metabolic stability of the macrocyclic tetrapeptides by human and mouse liver microsomes was performed by Curia Global (Buffalo, NY, USA). […]

[4] = Metabolic stability in mouse liver microsomes; type: in vitro ADME; conditions: 1 mg protein/mL; for half-life at 1 µM / microsomal CLint at 1 µM: mouse liver microsomes
Method: as §1

human MOR = target: T2, human MOR (Homo sapiens, UniProt P35372); experiment: biochemical; type: binding
T2 construct: expressed in transfected cells

hKOR [5] = target: T1, hKOR; experiment: Competition binding, [3H]U69,593, hKOR-CHO membranes; conditions: for Ki: [3H]U69,593, human KOR, ± S.E.M., three independent experiments, read-out: KOR Ki
hKOR [6] = target: T1, hKOR; experiment: KOR cAMP assay using GloSensor-22F, antagonist mode (vs 10 nM U50,488); type: cell-based
From the text: A piggy-Bac (PB) transposon/transposase system was utilized to allow for the stable integration of the GloSensor-22F cAMP sensor (Promega, Madison, WI, USA) gene into genomic TTAA sites in Chinese hamster ovary cells already stably expressing the hKOR. The pFastBac hyperPB plasmid vector, which codes for the piggy-Bac transposon/transposase system, was utilized and was a kind gift from Dr. John Lueck. The multicistronic expression cassette developed for our experiments consisted of a CMV promoter driving constitutive expression of GloSensor-22F cAMP sensor, followed by an internal ribosome entry site (IRES) to drive the expression of codon-optimized HygR-P2A-mScarlet (hygromycin resistance gene and mScarlet separated by a 2A self-cleaving peptide element). To clone the expression cassette onto the pFastBac vector, the CMV promoter and GloSensor-22F were PCR amplified from pGloSensor-22F cAMP Plasmid (Promega), the IRES sequence was PCR amplified from pLVX-CMV-Galpha-oA ONE-GO (a gift from Dr. Mikel Garcia-Marcos, Addgene plasmid #189732), the HygR-P2A-mScarlet sequence was a kind gift from Dr. Lueck, and a bGH-poly(A) termination sequence was PCR amplified from pcDNA3.1(+). The pFastBac vector was linearized via overnight digestion with CspCI at 37 °C, which cuts between two inverted terminal repeat (ITR) sequences, and the corresponding backbone and all PCR fragments were gel purified and assembled via Gibson assembly using the Gibson Assembly MasterMix (New England Biolabs, Ipswich, MA, USA). The resulting pFastBac CMV GloSensor-22F IRES HygR-P2A-mScarlet bGH plasmid was transformed into NEB Stable Competent E. coli (New England Biolabs), miniprepped using the E.Z.N.A. Plasmid DNA Mini Kit (Omega Bio-Tek, Norcross, GA, USA), and sequence verified by nanopore whole-plasmid sequencing (Eurofins Genomics, Louisville, KY, USA).
3.0 × 10^6 hKOR-CHO cells were plated on a 6 cm dish and incubated for four h at 37 °C and 5% CO2 in DMEM (Corning Mediatech, Manassas, VA, USA) supplemented with 5% FBS (Corning Mediatech), 1% Penicillin/Streptomycin (Gibco, Waltham, MA, USA). The cells were then transfected with 2.0 μg pFastBac CMV GloSensor-22F IRES HygR-P2A-mScarlet bGH using PEI as a transfection reagent. The following day, transfected cells were reseeded onto a 10 cm dish at a density of 5.0 × 10^5 cells and 600 μg/mL hygromycin B (Gold Bio, St. Louis, MO, USA) was added to the culture media. Cells were cultured under selection antibiotics for seven days, and the selection process was monitored by the increase in abundance of mScarlet positive cells via epifluorescence microscopy.
Following the selection period, KOR-CHO-GLO cells were maintained at 37 °C and 5% CO2 in DMEM supplemented with 5% FBS, 1% Penicillin/Streptomycin and 300 μg/mL hygromycin B to reduce the likelihood of CMV promoter silencing. On the day of the assay, cells were detached with 0.05% trypsin (Gibco) and counted, then centrifuged (1000× g, 5 min) and resuspended in assay buffer (1xPBS, 0.1% glucose, 0.5 mM MgCl2) containing 4 mM D-luciferin substrate (Gold Bio) at approximately 2 million cells/mL. 25 μL of cells (~50,000/well) were seeded onto poly L-lysine-coated white 96-well flat bottom plates (Greiner Bio-One, Kremsmünster, Austria)) and returned to the incubator for 60 min. Following incubation, cells were allowed to equilibrate to room temperature protected from light (10–15 min). Initial luminescence readings (at least 10 cycles) were collected for each well using a FLUOstar Omega v.6.2 plate reader (BMG Labtech, Ortenberg, Germany), after which the plate was removed. Prepared 4x treatments of drug (25 μL) were added to appropriate wells followed by 50 μL of 20 μM forskolin (AmBeed, Buffalo Grove, IL, USA) before the plate was returned to the reader and luminescence measured until final plateau levels were achieved (20–30 min). Assays were performed in duplicate and repeated at least three times.

C57BL/6J mice = experiment: 55 °C warm-water tail-withdrawal assay, antinociception; type: in vivo, mouse; conditions: 30 mg/kg, p.o., 30 min after administration
Method: For intracerebroventricular administration, peptides were dissolved in DMSO at a concentration of 20 mM (100 nmol/5 µL), then diluted to test doses in a final vehicle solution of 50%DMSO/50% saline (0.9%). For all other testing (for oral administration), peptides were made fresh each day for testing in a final vehicle solution of 10% DMSO/10% Solutol/80% saline (0.9%).
Intracerebroventricular injections were made directly into the lateral ventricle according to the modified steps detailed previously. The volume of all i.c.v. injections was 5 μL, using a 10 μL Hamilton microliter syringe. The mouse was lightly anesthetized with isoflurane, an incision was made in the scalp, and the injection was made 2 mm lateral and 2 mm caudal to bregma at a depth of 3 mm.
The dose response of analogs 3, 6, 9 and 14 were also assessed following administration of one of up to four additional oral (p.o.) doses (1–30 mg/kg).

[7] = 1 µM compound, 37 °C, read-out: HLM t1/2
[8] = [3H]DAMGO, human MOR, ± S.E.M., three independent experiments, read-out: MOR Ki
[9] = 1 µM compound, 37 °C, read-out: MLM t1/2

| Compound | Emax at 10 µM (hKOR [1]) [%] | solubility kinetic [2] [µM] | half-life at 1 µM [3, 7] [min] | microsomal CLint at 1 µM ([3]; read-out: HLM CLint) [µL/min/mg] | Ki (human MOR; [8]) [nM] | Selectivity (MOR Ki/KOR Ki) (hKOR [5]; MOR Ki/KOR Ki) | Ki (hKOR [5]) [nM] | half-life at 1 µM [4, 9] [min] | microsomal CLint at 1 µM ([4]; read-out: MLM CLint) [µL/min/mg] | further results |
| --- | --- | --- | --- | --- | --- | --- | --- | --- | --- | --- |
| Cc1ccc(C[C@H]2NC(=O)[C@H](Cc3ccccc3)NC(=O)[C@H]3CCCN3C(=O)[C@H](Cc3ccccc3)NC2=O)cc1 [Analog 15] (cyclo(F[dP]F[dPhe(4-Me)])) | 18 ± 1.4 | 24 (≈ 13.3 µg/mL) |  |  |  |  |  |  |  | half-life ([3]; microsomes, 1 µM compound, 37 °C, read-out: HLM t1/2): 5.4 min; microsomal CLint ([3]; microsomes, read-out: HLM CLint): 129 µL/min/mg; half-life ([4]; microsomes, 1 µM compound, 37 °C, read-out: MLM t1/2): 2.9 min; microsomal CLint ([4]; microsomes, read-out: MLM CLint): 236 µL/min/mg |
| O=C1N[C@H](Cc2cc(F)c(F)cc2F)C(=O)N[C@@H](Cc2ccccc2)C(=O)N2CCC[C@@H]2C(=O)N[C@H]1Cc1ccccc1 [Analog 10] | 19 ± 6.8 | 7.4 (≈ 4.39 µg/mL) | 1.5 | 462 | 270 ± 30 | 10 | 27 ± 3.3 | 1 | 699 | IC50 (hKOR [6]): 290 ± 40 nM |
| O=C1N[C@H](Cc2ccccc2F)C(=O)N[C@@H](Cc2ccccc2)C(=O)N2CCC[C@@H]2C(=O)N[C@H]1Cc1ccccc1 [Analog 5] (cyclo(F[dP]F[dPhe(2-F)])) |  | 15 (≈ 8.35 µg/mL) | 1.9 | 373 | 350 ± 22 | 9 | 39 ± 0.57 | 1.6 | 430 |  |
| O=C1N[C@H](Cc2c(F)c(F)c(F)c(F)c2F)C(=O)N[C@@H](Cc2ccccc2)C(=O)N2CCC[C@@H]2C(=O)N[C@H]1Cc1ccccc1 [Analog 12] (cyclo(F[dP]F[dPhe(F5)])) |  |  |  |  |  |  | 310 ± 9.9 |  |  | fold decrease in KOR affinity (fluorine substitution on D-Phe^4) (hKOR [5]): 13 fold |
| Nc1ccc(C[C@H]2NC(=O)[C@H](Cc3ccccc3)NC(=O)[C@H]3CCCN3C(=O)[C@H](Cc3ccccc3)NC2=O)cc1 [Analog 17] (cyclo(F[dP]F[dPhe(4-NH2)])) |  |  |  |  |  |  |  |  |  | inhibition at 10 µM (hKOR [5]; at 10 μM): 65% |
| Cc1cc(C)cc([C@@H]2CCCN2Cc2ccc(Oc3ccc(C(N)=O)cc3F)cc2)c1 [Aticaprant, reference compound] |  |  |  |  |  |  | 0.77 ± 0.1 |  |  | activity type in the cAMP assay (hKOR [1]): inverse agonist; KOR Efficacy (%) (hKOR [1]; mean % inhibition ± SEM at 10 µM relative to the KOR agonist U50,488, forskolin-stimulated cAMP): −48 ± 3.0 ^8%; Ki (human MOR): 15 ± 2 nM; Selectivity (MOR Ki/KOR Ki) (hKOR [5]): 19; IC50 (hKOR [6]; antagonism of an IC80 concentration (10 nM) of U50,488 in the cAMP assay, ± SEM, read-out: KOR Antag. IC50): 8 ± 1.7 nM |
| O=C1N[C@H](Cc2ccc(F)c(F)c2)C(=O)N[C@@H](Cc2ccccc2)C(=O)N2CCC[C@@H]2C(=O)N[C@H]1Cc1ccccc1 [Analog 8] (cyclo(F[dP]F[dPhe(3,4-F2)])) | 13 ± 2.7 | 9.5 (≈ 5.46 µg/mL) | 2.2 | 309 | 57 ± 5.6 | 9 | 6.6 ± 0.73 | 1.1 | 629 | antinociception vs vehicle (C57BL/6J mice): significant antinociception; IC50 (hKOR [6]): 170 ± 28 nM |
